The values that follow come from patent US11052154B2, “Ras protein degradation inducing molecule and pharmaceutical composition” (Tokyo University of Science Foundation, priority 2016, dated 2021).

Series [1] is described as follows: Body weight change and general condition of mice with subcutaneously implanted SW1990 cells. Particulars: oral 80 mg/kg once every 3 days, 7 doses. Format: in vivo, mouse. The procedure: To the subcutis of T-cell deficient mice (BALB/cAJcl-nu/nu, 4 weeks old, female) (CLEA Japan, Inc.), 0.1 mL of cell suspension in which SW1990 cells were suspended in PBS so as to be 1×10^7 cells/mL was implanted using a 26-gauge injection needle (TERUMO CORPORATION).
Immediately before administration, TUS-007 was dissolved in DMSO, 0.5 mass % carboxymethyl cellulose (Code No. 039-01335, Wako Pure Chemical Industries, Ltd.) solution was added so that the concentration of DMSO became 2.5 vol %, followed by pulverization by ultrasonic treatment to prepare a suspension of TUS-007. When the tumors of mice with subcutaneously implanted SW1990 cells grew to a size of approximately 100 mm^3, the prepared TUS-007 suspension was orally administered by gavage with a gastric tube (Code No. 5202K, Fuchigami Kikai) at a dose of 80 mg/kg body weight once every 3 days for a total of 7 doses (n=6 to 9). As a control (Vehicle), 0.5 mass % carboxymethyl cellulose solution containing 2.5 vol % DMSO was administered in the same manner.

The target of series [2] is T1, G12D mutant K-Ras protein (Homo sapiens, UniProt P01116, G12D).
T1 construct: expressed in transfected cells; host or cells: HeLa
The series can be described thus: Degradation (knockdown) of G12D mutant K-Ras protein forcibly expressed in HeLa cells, Western blot analysis. As to conditions: FIG. 4. Format: cell-based. Here is the method:
In Example 5, degradation (knockdown) of the G12D mutant K-Ras protein forcibly expressed in HeLa cells through TUS-007 was evaluated by Western blot analysis.
A plasmid expressing the G12D mutant K-Ras protein (K-Ras-G12D) was prepared, as in Example 4.
As in Example 4, the plasmid was introduced into HeLa cells to transiently overexpress a G12D mutant K-Ras protein or a DsRed protein for comparison in the cells. HeLa cells into which the plasmid had been introduced were seeded in a 24-well plate at a cell density of 4×10^4 cells/well, and then cultured under conditions of 37° C. and 5 vol % CO2 for 40 hours.
TUS-007 was added to HeLa cells as in Example 4. Furthermore, in addition to an experiment group in which a DMSO solution containing TUS-007 had been added, an experiment group in which a DMSO solution containing Ras-SOS-NH2 had been added was prepared. DMSO was used as a control.
As in Example 3, degradation of a G12D mutant K-Ras protein through TUS-007 was evaluated by Western blot analysis.
Background: Immunoblotting shows a protein as a band on a membrane.

Consider `CCC(C)[C@H](NC(=O)CCCCCCNC(=O)[C@H](CC(C)C)NC(=O)CNC(=O)c1cc(Cl)ccc1Cl)C(=O)Nc1ccc2[nH]c(Cc3c[nH]c4ccccc34)nc2c1` (stereo in doubt) [TUS-007], for which, in series [1], the “general condition of the mice” value is listed as “no abnormality in the general condition of the mice”. Also, the body weight changes entry in series [1] (vs Vehicle, FIG. 9B) is recorded as “no significant differences in body weight changes”. Moreover, the “amount of the G12D mutant K-Ras protein (Western blot)” value in series [2] is reported as “the amount of the G12D mutant K-Ras protein was reduced in a concentration-dependent manner”.
